From ChEMBL document CHEMBL1128080, “Structural Factors affecting the kinetics of O,N-acyl transfer in potential O-peptide prodrugs” (Bioorg Med Chem Lett, 1995)

Test: Half-life for the conversion of compound to the corresponding N-peptide under pseudo physiological conditions (0.04 M phosphate, pH 7.4 and 37 degree C)
Assay type: ADME
Settings: phosphate buffer

half-life [min] | Structure (SMILES)
4 | CCC(NC(=O)C(N)C(OC(=O)C(NC(=O)OCc1ccccc1)C(C)C)C(C)C)C(=O)NCCc1ccc(OC)c(OC)c1 (stereo not drawn)
370 | CNC1C(=O)NCCCCN(C)C(C(C)C)C(=O)OC1C(C)C (stereo not drawn)
95 | CCC(NC(=O)C(NC)C(OC(=O)C(NC(=O)OCc1ccccc1)C(C)C)C(C)C)C(=O)NCCc1ccc(OC)c(OC)c1 (stereo not drawn)
